# Results reported in patent publication US20050282908A1, “Substituted aminopropoxyaryl derivatives useful as agonists for LXR” (SmithKline Beecham Corporation, priority 2000, published 2005).
# Experiments:
# [1] = molecular target: T1, human LXRβ ligand binding domain (Homo sapiens, UniProt P55055); assay: Assay for LXRβ Activity (HTRF, SRC-1 peptide recruitment); format: biochemical; details: 1 μM; over a background reading of 10000 fluorescence units
# T1 construct: made in house; host or cells: E. coli BL21 (DE3), vector pRSETa
# T1 sequence (P55055 184-460 limits assumed): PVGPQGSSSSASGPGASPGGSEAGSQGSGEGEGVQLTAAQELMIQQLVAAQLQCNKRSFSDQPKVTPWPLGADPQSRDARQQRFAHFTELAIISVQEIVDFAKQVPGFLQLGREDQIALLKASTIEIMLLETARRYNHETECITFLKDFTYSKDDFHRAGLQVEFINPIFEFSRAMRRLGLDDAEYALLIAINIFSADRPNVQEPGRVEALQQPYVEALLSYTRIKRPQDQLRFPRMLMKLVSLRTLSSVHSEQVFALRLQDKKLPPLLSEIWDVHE
# T1 sequence (Q15788 676-700 partner limits assumed): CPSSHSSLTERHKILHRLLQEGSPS
# Procedure: A modified polyhistidine tag (MKKGHHHHHHG) (SEQ ID No. 1) was fused in frame to the human LXRβ ligand binding domain (amino acids 185-461 of Genbank accession number U07132) and subcloned into the expression vector pRSETa (Invitrogen) under the control of an IPTG inducible T7 promoter. The human LXRβ ligand binding domain was expressed in E. coli strain BL21 (DE3). Ten-liter fermentation batches were grown in Rich PO4 media with 0.1 mg/mL Ampicillin at 25° C. for 12 hours, cooled to 9° C. and held at that temperature for 36 hours to a density of OD600=14. At this cell density, 0.25 mM IPTG was added and induction proceeded for 24 hours at 9° C., to a final OD600=16. Cells were harvested by centrifugation (20 minutes, 3500 g, 4° C.), and concentrated cell slurries were stored in PBS at −80° C.
# Typically 25-50 g of cell paste is resuspended in 250-500 mL TBS, pH 8.0 (25 mM Tris, 150 mM NaCl). Cells are lysed by passing 3 times through an APV Rannie MINI-lab homogenizer and cell debris is removed by centrifugation (30 minutes, 20,000 g, 4° C.). […] After washing to baseline absorbance with equilibration buffer, the column is washed with approximately one column volume of TBS pH […] containing 95 mM imidazole. […] After washing to baseline absorbance with the dilution buffer the protein is eluted with a gradient from 50-500 mM NaCl. […]
# [2] = molecular target: T2, LXRα ligand binding domain (Homo sapiens, UniProt Q13133); assay: Assay for LXRα Activity (HTRF, run as Example 1); format: biochemical; details: 1 μM; over a background reading of 10000 fluorescence units
# T2 construct: His tag; made in house
# T2 sequence (Q13133 183-447): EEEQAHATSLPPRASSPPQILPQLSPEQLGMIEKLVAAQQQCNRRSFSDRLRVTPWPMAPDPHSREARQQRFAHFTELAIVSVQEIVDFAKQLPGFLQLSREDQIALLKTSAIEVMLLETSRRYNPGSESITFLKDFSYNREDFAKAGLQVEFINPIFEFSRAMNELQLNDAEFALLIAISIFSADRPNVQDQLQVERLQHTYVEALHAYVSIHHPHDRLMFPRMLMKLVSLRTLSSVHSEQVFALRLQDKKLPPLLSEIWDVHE
# T2 sequence (Q15788 676-700 partner): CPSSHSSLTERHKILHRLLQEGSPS
# Procedure: The assay for LXRα was run according to the procedures of Example 1, above using his-tagged LXRα ligand binding domain (amino acids 183-447 of Genbank accession number U22662, with the 14th amino acid corrected to A from R).
# In this assay 1 μM 24(S),25-epoxycholesterol gave a reading of 20000 fluorescence units over a background reading of 10000 fluorescence units.
smiles,measurement,setting,value
"C[C@H](CC[C@@H]1OC1(C)C)[C@H]1CC[C@H]2[C@@H]3CC=C4C[C@@H](O)CC[C@]4(C)[C@H]3CC[C@]12C [24(S),25-epoxycholesterol]",reading,[1],20000 fluorescence units
same,reading,[2],20000 fluorescence units
